Test results as given in the NIST ThermoML archive (doi:10.1016/j.jct.2005.01.017).

Experiment: xn = mol fraction of the nth substance listed
Conditions: 101 kPa, Liquid

CC1COC(=O)O1 (stereo not drawn) [4-methyl-1,3-dioxolan-2-one] + Cc1cccc(C)c1
Conditions | mass density [kg/m3]
293.15 K, x2 = 0 | 1200.25
293.15 K, x2 = 0.0576 | 1173.76
293.15 K, x2 = 0.1263 | 1143.64
293.15 K, x2 = 0.1735 | 1123.83
293.15 K, x2 = 0.2267 | 1102.36
293.15 K, x2 = 0.2867 | 1079.14
293.15 K, x2 = 0.3548 | 1054
293.15 K, x2 = 0.4243 | 1029.6
293.15 K, x2 = 0.4671 | 1015.15
293.15 K, x2 = 0.5341 | 993.4
293.15 K, x2 = 0.5811 | 978.7
293.15 K, x2 = 0.6532 | 957.01
293.15 K, x2 = 0.7213 | 937.38
293.15 K, x2 = 0.7831 | 920.23
293.15 K, x2 = 0.8421 | 904.39
293.15 K, x2 = 0.9212 | 883.89
303.15 K, x2 = 0 | 1180.56
303.15 K, x2 = 0.0476 | 1159.4
303.15 K, x2 = 0.1178 | 1129.53
303.15 K, x2 = 0.1822 | 1103.48
303.15 K, x2 = 0.2248 | 1086.93
303.15 K, x2 = 0.2978 | 1059.75
303.15 K, x2 = 0.3681 | 1034.91
303.15 K, x2 = 0.4348 | 1012.48
303.15 K, x2 = 0.5038 | 990.33
303.15 K, x2 = 0.5598 | 973.11
303.15 K, x2 = 0.6139 | 957.05
303.15 K, x2 = 0.6738 | 939.89
303.15 K, x2 = 0.7355 | 922.85
303.15 K, x2 = 0.8021 | 905.11
303.15 K, x2 = 0.8837 | 884.19
303.15 K, x2 = 0.9475 | 868.42
313.15 K, x2 = 0 | 1161.28
313.15 K, x2 = 0.0564 | 1137.19
313.15 K, x2 = 0.1291 | 1107.58
313.15 K, x2 = 0.1781 | 1088.5
313.15 K, x2 = 0.2378 | 1066.16
313.15 K, x2 = 0.3021 | 1043.18
313.15 K, x2 = 0.3614 | 1022.91
313.15 K, x2 = 0.4243 | 1002.32
313.15 K, x2 = 0.4861 | 982.96
313.15 K, x2 = 0.5349 | 968.22
313.15 K, x2 = 0.5924 | 951.44
313.15 K, x2 = 0.6521 | 934.66
313.15 K, x2 = 0.7134 | 918.04
313.15 K, x2 = 0.7634 | 904.91
313.15 K, x2 = 0.8325 | 887.34
313.15 K, x2 = 0.9334 | 862.75
323.15 K, x2 = 0 | 1142.43
323.15 K, x2 = 0.0525 | 1120.74
323.15 K, x2 = 0.1203 | 1093.93
323.15 K, x2 = 0.1832 | 1070.24
323.15 K, x2 = 0.2498 | 1046.31
323.15 K, x2 = 0.3103 | 1025.54
323.15 K, x2 = 0.3667 | 1006.98
323.15 K, x2 = 0.4327 | 986.16
323.15 K, x2 = 0.4962 | 967.01
323.15 K, x2 = 0.5587 | 948.93
323.15 K, x2 = 0.6148 | 933.3
323.15 K, x2 = 0.6813 | 915.46
323.15 K, x2 = 0.7539 | 896.75
323.15 K, x2 = 0.8013 | 884.94
323.15 K, x2 = 0.8625 | 870.1
323.15 K, x2 = 0.9346 | 853.17
333.15 K, x2 = 0 | 1123.99
333.15 K, x2 = 0.0478 | 1104.87
333.15 K, x2 = 0.1249 | 1075.39
333.15 K, x2 = 0.1942 | 1050.25
333.15 K, x2 = 0.2571 | 1028.52
333.15 K, x2 = 0.3245 | 1006.29
333.15 K, x2 = 0.3878 | 986.36
333.15 K, x2 = 0.4313 | 973.16
333.15 K, x2 = 0.5138 | 949.16
333.15 K, x2 = 0.582 | 930.28
333.15 K, x2 = 0.6842 | 903.43
333.15 K, x2 = 0.7323 | 891.34
333.15 K, x2 = 0.7723 | 881.53
333.15 K, x2 = 0.8248 | 868.96
333.15 K, x2 = 0.8833 | 855.34
333.15 K, x2 = 0.9429 | 841.84
343.15 K, x2 = 0 | 1105.98
343.15 K, x2 = 0.0634 | 1081.55
343.15 K, x2 = 0.1278 | 1057.84
343.15 K, x2 = 0.1798 | 1039.5
343.15 K, x2 = 0.2348 | 1020.82
343.15 K, x2 = 0.3013 | 999.21
343.15 K, x2 = 0.3703 | 977.83
343.15 K, x2 = 0.4259 | 961.33
343.15 K, x2 = 0.4829 | 945.05
343.15 K, x2 = 0.5329 | 931.26
343.15 K, x2 = 0.5928 | 915.31
343.15 K, x2 = 0.6528 | 899.92
343.15 K, x2 = 0.7132 | 884.96
343.15 K, x2 = 0.7829 | 868.32
343.15 K, x2 = 0.8532 | 852.13
343.15 K, x2 = 0.9253 | 836.07
353.15 K, x2 = 0 | 1088.38
353.15 K, x2 = 0.0622 | 1065.11
353.15 K, x2 = 0.1199 | 1044.44
353.15 K, x2 = 0.1874 | 1021.32
353.15 K, x2 = 0.2401 | 1004.03
353.15 K, x2 = 0.3149 | 980.58
353.15 K, x2 = 0.3871 | 959.07
353.15 K, x2 = 0.451 | 940.91
353.15 K, x2 = 0.5249 | 920.84
353.15 K, x2 = 0.5832 | 905.67
353.15 K, x2 = 0.6591 | 886.72
353.15 K, x2 = 0.7249 | 870.97
353.15 K, x2 = 0.7719 | 860.05
353.15 K, x2 = 0.8529 | 841.86
353.15 K, x2 = 0.8941 | 832.88
353.15 K, x2 = 0.9483 | 821.31

CC1COC(=O)O1 (stereo not drawn) [4-methyl-1,3-dioxolan-2-one] + Cc1ccccc1C
Conditions | mass density [kg/m3]
293.15 K, x2 = 0 | 1200.25
293.15 K, x2 = 0.0538 | 1176.67
293.15 K, x2 = 0.1287 | 1145.43
293.15 K, x2 = 0.1843 | 1123.36
293.15 K, x2 = 0.2358 | 1103.71
293.15 K, x2 = 0.3149 | 1074.93
293.15 K, x2 = 0.3559 | 1060.64
293.15 K, x2 = 0.4247 | 1037.54
293.15 K, x2 = 0.4792 | 1020.01
293.15 K, x2 = 0.5345 | 1002.84
293.15 K, x2 = 0.6031 | 982.36
293.15 K, x2 = 0.6638 | 964.97
293.15 K, x2 = 0.7213 | 949.05
293.15 K, x2 = 0.7832 | 932.49
293.15 K, x2 = 0.8529 | 914.51
293.15 K, x2 = 0.9284 | 895.76
303.15 K, x2 = 0 | 1180.55
303.15 K, x2 = 0.0613 | 1155.03
303.15 K, x2 = 0.1273 | 1128.84
303.15 K, x2 = 0.1732 | 1111.36
303.15 K, x2 = 0.2583 | 1080.45
303.15 K, x2 = 0.3341 | 1054.45
303.15 K, x2 = 0.3619 | 1045.26
303.15 K, x2 = 0.4282 | 1024.01
303.15 K, x2 = 0.4911 | 1004.69
303.15 K, x2 = 0.5538 | 986.2
303.15 K, x2 = 0.6132 | 969.33
303.15 K, x2 = 0.6739 | 952.71
303.15 K, x2 = 0.7428 | 934.53
303.15 K, x2 = 0.8023 | 919.3
303.15 K, x2 = 0.8631 | 904.39
303.15 K, x2 = 0.9347 | 887.3
313.15 K, x2 = 0 | 1161.28
313.15 K, x2 = 0.0643 | 1135.09
313.15 K, x2 = 0.1138 | 1115.77
313.15 K, x2 = 0.1729 | 1093.62
313.15 K, x2 = 0.2483 | 1066.72
313.15 K, x2 = 0.3248 | 1040.87
313.15 K, x2 = 0.3958 | 1018.07
313.15 K, x2 = 0.4587 | 998.77
313.15 K, x2 = 0.518 | 981.29
313.15 K, x2 = 0.5628 | 968.51
313.15 K, x2 = 0.6345 | 948.78
313.15 K, x2 = 0.6948 | 932.83
313.15 K, x2 = 0.7539 | 917.73
313.15 K, x2 = 0.8039 | 905.34
313.15 K, x2 = 0.8621 | 891.32
313.15 K, x2 = 0.9357 | 874.17
323.15 K, x2 = 0 | 1142.43
323.15 K, x2 = 0.0527 | 1120.67
323.15 K, x2 = 0.1328 | 1089.28
323.15 K, x2 = 0.1842 | 1070.13
323.15 K, x2 = 0.2487 | 1047.11
323.15 K, x2 = 0.3398 | 1016.41
323.15 K, x2 = 0.3781 | 1004.09
323.15 K, x2 = 0.4487 | 982.22
323.15 K, x2 = 0.5031 | 966.07
323.15 K, x2 = 0.5529 | 951.78
323.15 K, x2 = 0.6249 | 931.92
323.15 K, x2 = 0.6843 | 916.18
323.15 K, x2 = 0.7451 | 900.64
323.15 K, x2 = 0.8146 | 883.52
323.15 K, x2 = 0.8702 | 870.29
323.15 K, x2 = 0.9429 | 853.56
333.15 K, x2 = 0 | 1123.99
333.15 K, x2 = 0.0578 | 1099.25
333.15 K, x2 = 0.1298 | 1070.06
333.15 K, x2 = 0.1844 | 1049.03
333.15 K, x2 = 0.2358 | 1030.04
333.15 K, x2 = 0.3139 | 1002.61
333.15 K, x2 = 0.3847 | 979.1
333.15 K, x2 = 0.4412 | 961.2
333.15 K, x2 = 0.5055 | 941.69
333.15 K, x2 = 0.5572 | 926.61
333.15 K, x2 = 0.6148 | 910.43
333.15 K, x2 = 0.6627 | 897.43
333.15 K, x2 = 0.7365 | 878.16
333.15 K, x2 = 0.7947 | 863.56
333.15 K, x2 = 0.8634 | 846.95
333.15 K, x2 = 0.9354 | 830.22
343.15 K, x2 = 0 | 1105.98
343.15 K, x2 = 0.0527 | 1081.81
343.15 K, x2 = 0.1278 | 1049.31
343.15 K, x2 = 0.1782 | 1028.67
343.15 K, x2 = 0.2476 | 1001.67
343.15 K, x2 = 0.3279 | 972.32
343.15 K, x2 = 0.3841 | 952.89
343.15 K, x2 = 0.4529 | 930.23
343.15 K, x2 = 0.5139 | 911.13
343.15 K, x2 = 0.5732 | 893.36
343.15 K, x2 = 0.6241 | 878.7
343.15 K, x2 = 0.6742 | 864.77
343.15 K, x2 = 0.7246 | 851.23
343.15 K, x2 = 0.7726 | 838.75
343.15 K, x2 = 0.8523 | 818.84
343.15 K, x2 = 0.9274 | 800.96
353.15 K, x2 = 0 | 1088.38
353.15 K, x2 = 0.0639 | 1056.4
353.15 K, x2 = 0.1128 | 1033.26
353.15 K, x2 = 0.1832 | 1001.84
353.15 K, x2 = 0.2478 | 974.79
353.15 K, x2 = 0.3255 | 944.31
353.15 K, x2 = 0.3859 | 922.03
353.15 K, x2 = 0.4628 | 895.28
353.15 K, x2 = 0.5248 | 874.93
353.15 K, x2 = 0.5819 | 857.07
353.15 K, x2 = 0.6249 | 844.14
353.15 K, x2 = 0.6829 | 827.36
353.15 K, x2 = 0.7249 | 815.64
353.15 K, x2 = 0.7821 | 800.25
353.15 K, x2 = 0.8698 | 777.8
